Molecular target: T1, full-length beta-Catenin (Uniprot ID P35222) (Homo sapiens, UniProt P35222)
T1 construct: 10 nM full-length beta-Catenin (Uniprot ID P35222)
T1 sequence (P35222 1-781): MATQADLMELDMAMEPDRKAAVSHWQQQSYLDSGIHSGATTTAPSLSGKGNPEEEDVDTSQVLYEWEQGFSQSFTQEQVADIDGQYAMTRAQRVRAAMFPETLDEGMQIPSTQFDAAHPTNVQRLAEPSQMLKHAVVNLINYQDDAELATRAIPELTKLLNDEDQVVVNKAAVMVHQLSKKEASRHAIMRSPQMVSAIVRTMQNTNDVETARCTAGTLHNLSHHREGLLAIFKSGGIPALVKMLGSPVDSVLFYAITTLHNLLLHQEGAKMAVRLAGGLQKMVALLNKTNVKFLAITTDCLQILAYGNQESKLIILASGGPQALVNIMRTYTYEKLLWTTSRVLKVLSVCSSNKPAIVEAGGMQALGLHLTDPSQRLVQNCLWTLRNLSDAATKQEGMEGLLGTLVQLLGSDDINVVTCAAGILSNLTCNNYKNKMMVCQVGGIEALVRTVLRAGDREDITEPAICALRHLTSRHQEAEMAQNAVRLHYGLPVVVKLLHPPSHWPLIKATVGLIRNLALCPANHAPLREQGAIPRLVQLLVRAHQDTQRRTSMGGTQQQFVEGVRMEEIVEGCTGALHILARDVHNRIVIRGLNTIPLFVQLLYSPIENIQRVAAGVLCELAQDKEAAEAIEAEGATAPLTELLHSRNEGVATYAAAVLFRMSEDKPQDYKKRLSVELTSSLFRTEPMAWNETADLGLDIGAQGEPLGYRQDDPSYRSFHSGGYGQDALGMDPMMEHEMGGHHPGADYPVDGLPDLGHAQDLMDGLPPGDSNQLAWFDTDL
Experiment: Fluorescence polarization IC50 (beta-catenin / 5FAM-TCF4 10-53 competition)
Format: binding
Conditions: fluorescence polarization; read-out: beta-Catenin FP IC50

| Compound | IC50 [nM] |
| --- | --- |
| CC(=O)N1CCC[C@]12CC1OC1CCCC1(CCCC=CCCCOC(=O)N3CC[C@@](C(=O)N[C@@H](Cc4ccccc4C(F)(F)F)C(=O)N[C@@H](Cc4csc5ccccc45)C(=O)N[C@@H](CCC(N)=O)C(N)=O)(C3)NC(=O)[C@H](CC(C)C)NC(=O)[C@H](Cc3ccccc3)NC(=O)[C@H](C)NC(=O)[C@H](C)NC(=O)[C@H](Cc3cccc(C(=O)O)c3)NC(=O)[C@H](CC(=O)O)NC1=O)NC(=O)[C@H](CC(C)(C)C)NC(=O)[C@H](CC(=O)O)NC2=O (stereo partly drawn) [I-2597, Ac-PL3-Asp-Npg-B5-Asp-3COOHF-Ala-Ala-Phe-Leu-PyrS2-2F3MeF-BztA-Gln-NH2] | 726 |
| CC(C)C[C@H](NC(=O)[C@]12CCN(C1)C(=O)OCCCC=CCCCC1(CCCC=CCCCC(=O)N3CCC[C@@]3(C)C(=O)N[C@@H](CC(=O)O)C(=O)N1)C(=O)N[C@@H](C)C(=O)N[C@@H](CC(=O)O)C(=O)N[C@@H](CC(=O)O)C(=O)N[C@@H](C)C(=O)N[C@@H](C)C(=O)N[C@@H](Cc1ccccc1)C(=O)N2)C(=O)N[C@@H](Cc1ccsc1)C(=O)N[C@@H](Cc1csc2ccccc12)C(=O)N[C@@H](CCC(N)=O)C(N)=O (stereo partly drawn) [I-2598, 5hexenyl-MePro-Asp-B5-Ala-Asp-Asp-Ala-Ala-Phe-PyrS2-Leu-3Thi-BztA-Gln-NH2] | 1350 |
| CC(C)C[C@H](NC(=O)[C@]12CCN(C1)C(=O)OCCCCCCCCC1(CCCCCCCCC(=O)N3CCC[C@@]3(C)C(=O)N[C@@H](CC(=O)O)C(=O)N1)C(=O)N[C@@H](C)C(=O)N[C@@H](CC(=O)O)C(=O)N[C@@H](CC(=O)O)C(=O)N[C@@H](C)C(=O)N[C@@H](C)C(=O)N[C@@H](Cc1ccccc1)C(=O)N2)C(=O)N[C@@H](Cc1ccsc1)C(=O)N[C@@H](Cc1csc2ccccc12)C(=O)N[C@@H](CCC(N)=O)C(N)=O (stereo partly drawn) [I-2600, 5hexenyl-MePro-Asp-B5-Ala-Asp-Asp-Ala-Ala-Phe-PyrS2-Leu-3Thi-BztA-Gln-NH2] | 923 |
| CC(C)C[C@H](NC(=O)[C@]12CCN(C1)C(=O)OCCCCCCCCC1(CCCCCCCC(=O)N3CCC[C@@]3(C)C(=O)N[C@@H](CC(=O)O)C(=O)N1)C(=O)N[C@@H](C)C(=O)N[C@@H](CC(=O)O)C(=O)N[C@@H](CC(=O)O)C(=O)N[C@@H](C)C(=O)N[C@@H](C)C(=O)N[C@@H](Cc1ccccc1)C(=O)N2)C(=O)N[C@@H](Cc1ccsc1)C(=O)N[C@@H](Cc1csc2ccccc12)C(=O)N[C@@H](CCC(N)=O)C(N)=O (stereo partly drawn) [I-2601, 4pentenyl-MePro-Asp-B5-Ala-Asp-Asp-Ala-Ala-Phe-PyrS2-Leu-3Thi-BztA-Gln-NH2] | 592 |
| CC(C)C[C@H](NC(=O)[C@]12CCN(C1)C(=O)OCCCC=CCCCC1(CCCC=CCCCC(=O)N3CCC[C@@]3(C)C(=O)N[C@@H](CC(=O)O)C(=O)N1)C(=O)N[C@@H](C)C(=O)N[C@@H](CC(=O)O)C(=O)N[C@@H](Cc1cccc(C(=O)O)c1)C(=O)N[C@@H](C)C(=O)N[C@@H](C)C(=O)N[C@@H](Cc1ccccc1)C(=O)N2)C(=O)N[C@@H](Cc1ccsc1)C(=O)N[C@@H](Cc1csc2ccccc12)C(=O)N[C@@H](CCC(N)=O)C(N)=O (stereo partly drawn) [I-2602, 5hexenyl-MePro-Asp-B5-Ala-Asp-3COOHF-Ala-Ala-Phe-PyrS2-Leu-3Thi-BztA-Gln-NH2] | 8220 |
| CC(C)C[C@H](NC(=O)[C@]12CCN(C1)C(=O)OCCCC=CCCCC1(CCCC=CCCC(=O)N3CCC[C@@]3(C)C(=O)N[C@@H](CC(=O)O)C(=O)N1)C(=O)N[C@@H](C)C(=O)N[C@@H](CC(=O)O)C(=O)N[C@@H](Cc1cccc(C(=O)O)c1)C(=O)N[C@@H](C)C(=O)N[C@@H](C)C(=O)N[C@@H](Cc1ccccc1)C(=O)N2)C(=O)N[C@@H](Cc1ccsc1)C(=O)N[C@@H](Cc1csc2ccccc12)C(=O)N[C@@H](CCC(N)=O)C(N)=O (stereo partly drawn) [I-2603, 4pentenyl-MePro-Asp-B5-Ala-Asp-3COOHF-Ala-Ala-Phe-PyrS2-Leu-3Thi-BztA-Gln-NH2] | 767 |
| CC(C)C[C@H](NC(=O)[C@]12CCN(C1)C(=O)OCCCCCCCCC1(CCCCCCCCC(=O)N3CCC[C@@]3(C)C(=O)N[C@@H](CC(=O)O)C(=O)N1)C(=O)N[C@@H](C)C(=O)N[C@@H](CC(=O)O)C(=O)N[C@@H](Cc1cccc(C(=O)O)c1)C(=O)N[C@@H](C)C(=O)N[C@@H](C)C(=O)N[C@@H](Cc1ccccc1)C(=O)N2)C(=O)N[C@@H](Cc1ccsc1)C(=O)N[C@@H](Cc1csc2ccccc12)C(=O)N[C@@H](CCC(N)=O)C(N)=O (stereo partly drawn) [I-2604, 5hexenyl-MePro-Asp-B5-Ala-Asp-3COOHF-Ala-Ala-Phe-PyrS2-Leu-3Thi-BztA-Gln-NH2] | 1120 |
| CC(C)C[C@H](NC(=O)[C@]12CCN(C1)C(=O)OCCCCCCCCC1(CCCCCCCC(=O)N3CCC[C@@]3(C)C(=O)N[C@@H](CC(=O)O)C(=O)N1)C(=O)N[C@@H](C)C(=O)N[C@@H](CC(=O)O)C(=O)N[C@@H](Cc1cccc(C(=O)O)c1)C(=O)N[C@@H](C)C(=O)N[C@@H](C)C(=O)N[C@@H](Cc1ccccc1)C(=O)N2)C(=O)N[C@@H](Cc1ccsc1)C(=O)N[C@@H](Cc1csc2ccccc12)C(=O)N[C@@H](CCC(N)=O)C(N)=O (stereo partly drawn) [I-2605, 4pentenyl-MePro-Asp-B5-Ala-Asp-3COOHF-Ala-Ala-Phe-PyrS2-Leu-3Thi-BztA-Gln-NH2] | 608 |
| CC(C)C[C@H](NC(=O)[C@]12CCN(C1)C(=O)OCCCCCCCCC1(CCCCCCC(=O)N3CCC[C@@]3(C)C(=O)N[C@@H](CC(=O)O)C(=O)N1)C(=O)N[C@@H](C)C(=O)N[C@@H](CC(=O)O)C(=O)N[C@@H](CC(=O)O)C(=O)N[C@@H](C)C(=O)N[C@@H](C)C(=O)N[C@@H](Cc1ccccc1)C(=O)N2)C(=O)N[C@@H](Cc1ccsc1)C(=O)N[C@@H](Cc1csc2ccccc12)C(=O)N[C@@H](CCC(N)=O)C(N)=O (stereo partly drawn) [I-2608, 3butenyl-MePro-Asp-B5-Ala-Asp-Asp-Ala-Ala-Phe-PyrS2-Leu-3Thi-BztA-Gln-NH2] | 251 |

Further lines, results first:

| IC50 [nM] | Compound |
| --- | --- |
| 345 | CC(=O)N1CCC[C@]12CC=CCCCC1(CCCC=CCCCOC(=O)N3CCC(C(=O)N[C@@H](Cc4ccccc4C(F)(F)F)C(=O)N[C@@H](Cc4csc5ccccc45)C(=O)N[C@@H](C)C(N)=O)(CC3)NC(=O)[C@H](CC(C)C)NC(=O)[C@H](Cc3ccccc3)NC(=O)[C@H](C)NC(=O)[C@H](CCC(N)=O)NC(=O)[C@H](Cc3cccc(C(=O)O)c3)NC(=O)[C@H](CC(=O)O)NC1=O)NC(=O)[C@H](CC(C)(C)C)NC(=O)[C@H](CC(=O)O)NC2=O (stereo partly drawn) [I-2586, Ac-PL3-Asp-Npg-B5-Asp-3COOHF-Gln-Ala-Phe-Leu-SPip2-2F3MeF-BztA-Ala-NH2] |
| 273 | CC(=O)N1CCC[C@]12CC=CCCCC1(CCCC=CCCCCOC(=O)N3CCC(C(=O)N[C@@H](Cc4ccccc4C(F)(F)F)C(=O)N[C@@H](Cc4csc5ccccc45)C(=O)N[C@@H](C)C(N)=O)(CC3)NC(=O)[C@H](CC(C)C)NC(=O)[C@H](Cc3ccccc3)NC(=O)[C@H](C)NC(=O)[C@H](CCC(N)=O)NC(=O)[C@H](Cc3cccc(C(=O)O)c3)NC(=O)[C@H](CC(=O)O)NC1=O)NC(=O)[C@H](CC(C)(C)C)NC(=O)[C@H](CC(=O)O)NC2=O (stereo partly drawn) [I-2587, Ac-PL3-Asp-Npg-B5-Asp-3COOHF-Gln-Ala-Phe-Leu-SPip3-2F3MeF-BztA-Ala-NH2] |
| 26 | CC(=O)N1CCC[C@]12CC=CCCCC1(CCCC=CCCCOC(=O)N3CCC(C(=O)N[C@@H](Cc4ccsc4)C(=O)N[C@@H](Cc4csc5ccccc45)C(=O)N[C@@H](CCC(N)=O)C(N)=O)(CC3)NC(=O)[C@H](CC(C)C)NC(=O)[C@H](Cc3ccccc3)NC(=O)[C@H](C)NC(=O)[C@H](C)NC(=O)[C@H](Cc3cccc(C(=O)O)c3)NC(=O)[C@H](CC(=O)O)NC1=O)NC(=O)[C@H](CC(C)(C)C)NC(=O)[C@H](CC(=O)O)NC2=O (stereo partly drawn) [I-2588, Ac-PL3-Asp-Npg-B5-Asp-3COOHF-Ala-Ala-Phe-Leu-SPip2-3Thi-BztA-Gln-NH2] |
| 602 | CC(=O)N1CCC[C@]12CC=CCCCC1(CCCC=CCCOC(=O)N3CCC(C(=O)N[C@@H](Cc4ccsc4)C(=O)N[C@@H](Cc4csc5ccccc45)C(=O)N[C@@H](C)C(N)=O)(CC3)NC(=O)[C@H](CC(C)C)NC(=O)[C@H](Cc3ccccc3)NC(=O)[C@H](C)NC(=O)[C@H](CCC(N)=O)NC(=O)[C@H](Cc3cccc(C(=O)O)c3)NC(=O)[C@H](CC(=O)O)NC1=O)NC(=O)[C@H](CC(C)(C)C)NC(=O)[C@H](CC(=O)O)NC2=O (stereo partly drawn) [I-2591, Ac-PL3-Asp-Npg-B5-Asp-3COOHF-Gln-Ala-Phe-Leu-SPip1-3Thi-BztA-Ala-NH2] |
| 215 | CC(=O)N1CCC[C@]12CC=CCCCC1(CCCC=CCCCOC(=O)N3CC(C(=O)N[C@@H](Cc4ccccc4C(F)(F)F)C(=O)N[C@@H](Cc4csc5ccccc45)C(=O)N[C@@H](CCC(N)=O)C(N)=O)(C3)NC(=O)[C@H](CC(C)C)NC(=O)[C@H](Cc3ccccc3)NC(=O)[C@H](C)NC(=O)[C@H](C)NC(=O)[C@H](Cc3cccc(C(=O)O)c3)NC(=O)[C@H](CC(=O)O)NC1=O)NC(=O)[C@H](CC(C)(C)C)NC(=O)[C@H](CC(=O)O)NC2=O (stereo partly drawn) [I-2610, Ac-PL3-Asp-Npg-B5-Asp-3COOHF-Ala-Ala-Phe-Leu-Az2-2F3MeF-BztA-Gln-NH2] |

From patent US20240116985A1, “STAPLED PEPTIDES AND METHODS THEREOF” (priority 2020, published 2024)
